Source: US20140045943A1, “Hydroxamic Acid Derivatives, Preparation and Therapeutic Uses Thereof” (Naurex, Inc., priority 2008, published 2014)

Assays:
[1] = tested on: Methemoglobin; assay: Methemoglobinemia in the rat; type: in vivo; settings: for Methemoglobin (%): 50 mg/kg, sc, 1 hr
Source text: Hydroxylamines are efficacious aldehyde sequestering agents but also may induce methemaglobinemia. Methemoglobinemia is the condition caused by the oxidation of hemoglobin into methemoglobin or a deficiency in the ability of the body to reduce methemoglobin to hemoglobin.
Table 2 sets forth a comparison of the percentage of hemoglobin that is in the form of methemoglobin under control conditions, in the presence of aldehyde sequestering agent, N-enzylhydroxylamine (NBHA) and the hydroxamic acid, AK-10.

[2] = tested on: Male Sprague Dawley rats; assay: Trimethyltin (TMT) model, KCl-evoked glutamate release from hippocampal slices; type: in vivo, rat; settings: AK-10 25 mg/kg, sc daily for 17 days, starting 24 hours after TMT 8 mg/kg, FIG. 3
Protocol: Male Sprague Dawley rats (200 g; Harlan) were administered […], sc trimethyltin (TMT) and housed individually as a result of the aggressive behavior induced by the neurotoxicant. The day following the TMT treatment, rats were started on a once daily dosing for 17 days with vehicle or AK-10 (25 mg/kg, sc) in PBS. Rats were decapitated on day 19 and the hippocampi isolated and placed in chilled Hanks Balanced Salt Solution containing 20 mM HEPES (HBSS-HEPES, 4° C.) for release experiments.
Chilled tissues were cut into 300 μm slices. A single slice was incubated in 2 ml of HBSS-HEPES in 12-well culture plates at 37° C. for 30 min. The media was discarded and the slice incubated for 2-10 min periods, each with fresh media. Next, the slices were incubated for 5 min after which the media was isolated for amino acid analyses (Pre-sample), followed by a 5 min incubation in which 50 mM KCl was added to evoke neurotransmitter release from the slices (KCl sample). Next, a final 5 min incubation in HBSS-HEPES was collected (Post sample). […]
For the GC-MS analysis of glutamate, an Agilent bench-top GC-MSD (HP6890/MSD5973) system was autotuned (41, 267 and 599) under PCI conditions with methane as the reagent gas. […] The [MH]+ ions that were monitored were 332 and 338 for endogenous GABA and its internal standard, and 490 and 495 for endogenous glutamate and its internal standard. […]

[3] = tested on: rat retinal cell line, E1A-NR.3; assay: 3-aminopropanal neurotoxicity assay, LDH release, retinal cell cultures; type: cell-based; settings: for % Neuroprotection (600 μM): compound 600 μM, 24-hour incubation with 400 μM 3-aminopropanal in retinal ganglion cells
Protocol: The rat retinal cell line, E1A-NR.3, was grown in DMEM, containing 10% FBS, in 75 cm2 flasks. […] Media was collected and assayed for LDH using the Roche assay kit. Rabbit muscle LDH was used for the standard curve. Drug treatments of aldehyde sequestering agents were as co-treatments or delayed administration of about 0.5 to about 3 hours. All drugs were dissolved in PBS.

[4] = tested on: rat retinal cell line, E1A-NR.3; settings: co-treatments and delayed addition; reference (1); cited from earlier work

SMILES	% Neuroprotection (600 μM) [3]	protection of retinal cells from 3-aminopropanal toxicity [4]	further results
CC(C)CC(N)C(=O)NO (centres unmarked) [AK-10, 2-amino-N-hydroxy-4-methylpentamide]	100%	–	Methemoglobin (%) [1]: 2.2 ± 0.3%; methemoglobinemia ([1]; N-benzylhydroxylamine as positive control): lack of methemoglobinemia; protection in the rat trimethyltin model of CA3 glutamatergic cell death (KCl-evoked glutamate release as index of CA3 neuronal loss) [2]: prevention of TMT neurotoxicity; delay of treatment after 3-AP still giving reduced 24-hour LDH levels ([3]; 300 μM AK-10, delayed co-treatment 0.5 to 3 hours, 400 μM 3-AP, FIG. 2): at least 3 hours; activity in the model of aldehyde-induced cell death ([3]; Table 1, FIG. 1, FIG. 2): most efficacious analog; 24-hour LDH level versus cells exposed to 3-AP alone ([3]; co-treatment, 150 μM, 300 μM and 600 μM AK-10 with 400 μM 3-AP, FIG. 1): significantly reduce
CC(=O)NC(CC(C)C)C(=O)NO (centres unmarked) [AK-12, 2-acetoamido-N-hydroxy-4-methylpentamide]	10%	–	melting point: 47 to 49 °C
CCCC(N)C(=O)NO (centres unmarked) [AK-25, 2-amino-N-hydroxypentamide]	28%	–	–
CC(C)C(N)CC(=O)NO (centres unmarked) [AK-26, 3-amino-N-hydroxy-4-methylpentamide]	58%	–	–
CC(N)C(=O)NO (centres unmarked) [AK-27, 2-amino-N-hydroxypropanamide]	6%	–	–
CCC(N)C(=O)NO (centres unmarked) [AK-28, 2-amino-N-hydroxybutanamide]	39%	–	–
CCC(C)C(N)C(=O)NO (centres unmarked) [AK-29, 2-amino-N-hydroxy-3-methylpentamide]	4%	–	–
CC(S)C(=O)NCC(=O)O (centres unmarked) [N-(2-mercaptopropionyl)-glycine]	–	active	–
ONCc1ccccc1 [NBHA, N-benzylhydroxylamine, reference compound]	–	protected retinal cells	Methemoglobin (%) [1]: 22.6 ± 3.1%
O=C1O[C@H]([C@@H](O)CO)C(O)=C1O [ascorbic acid, reference compound]	–	–	protection in the rat trimethyltin model of CA3 glutamatergic cell death (KCl-evoked glutamate release as index of CA3 neuronal loss) [2]: not
ONC1CCCCC1 [cyclohexylhydroxylamine]	–	protected retinal cells	–
CC(C)(C)NO [t-butylhydroxylamine]	–	protected retinal cells	–
